Test results reported in paper PMC11106165, “Repurposing the KCa3.1 Blocker Senicapoc for Ischemic Stroke” (Translational Stroke Research, 2023).

How the values were obtained:
[1] = tested on: MMC (mouse microglial cell line); experiment: Fluo-4 calcium imaging of ATP-induced Ca2+ signaling in MMC; format: cell-based; settings: 100 µM ATP, Fluo-4 ΔF/F
Procedure: Real-time changes of [Ca^2+]i in MMCs seeded on glass coverslips at a density of 10,000 cells/cm^2 were measured using the time-lapse imaging module on a BZ-X780 fluorescence microscopy (Keyence LLC, Campbell, CA) and the fluorescent calcium indicator Fluo-4/AM from Invitrogen (ThermoFisher, Waltham, MA) as previously described. For testing the effect of KCa3.1 inhibition on intracellular calcium changes, cells were pre-incubated with senicapoc during the de-esterification step and throughout the course of the experiment. All fluorescence measurements were made at 2-s intervals at room temperature from subconfluent areas of the coverslips to ensure that only individual microglia were measured. Image data were analyzed off-line with Fiji using the ROI-1 click tool and the change in microglial [Ca^2+]i was represented as ΔF/F (change in fluorescence after baseline-subtraction).

[2] = tested on: MMC (mouse microglial cell line); experiment: RT-qPCR of inflammatory markers in LPS-stimulated MMC; format: cell-based; settings: 24 h 100 ng/mL LPS
Procedure: An immortalized mouse microglial cell (MMC) line was kindly provided by Dr. D.T. Golenbock (University of Massachusetts Medical School, Worcester, MA) and previously used by our laboratory. Cells were cultured in Gibco’s Dulbecco’s modified Eagle’s Medium (DMEM, high glucose, L-glutamine, high pyruvate) with 5% CO2 at 37° with 1% penicillin/streptomycin and 10% fetal bovine serum. For the qPCR experiments, cells were seeded at 200,000 cells/mL; 24 h later, medium was changed to DMEM with 2% FBS and cells were stimulated with 100 ng/mL lipopolysaccharide (LPS), in the presence or absence of senicapoc, or a 0.2% DMSO control. Cells were pre-incubated with senicapoc for 1 h prior to stimulation and harvested 24 h after stimulation.
After MRIs were completed, mice were euthanized with an overdose of isoflurane, brains harvested, split into ipsilateral and contralateral hemispheres, and immediately frozen with liquid N2. Brain hemispheres were homogenized in mortar and pestles with liquid N2. RNA was extracted from brain homogenates (Fig. 7b) or MMC cell pellets (Fig. 2) with Trizol (ThermoFisher, Catalog # 15,596,026) according to the manufacturer’s protocol. RNA purity and concentration were assessed using a Nanodrop Spectrophotometer ND-1000 (Marshall Scientific). The 260 nm/280 nm absorption ratios for the samples ranged from 1.95 to 2.00. Subsequently, a cDNA library was made with a High-Capacity cDNA Reverse Transcription Kit (ThermoFisher Scientific, Catalog# 4,374,967), with 2 µg of total RNA per […]. Reactions were carried out in a PTC-200 Peltier Thermal Cycler; the conditions were as follows: 25 °C for 10 min, 37 °C for 120 min, 85 °C for 5 min, with final storage at 4 °C. RT-qPCR reactions were conducted in an Applied Biosystems Viia7 Real-Time PCR System using Maxima SYBR Green/ROX qPCR Master Mix (ThermoFisher Scientific, Catalog #K022) and with the recommended three-step cycling protocol. […] Fold change was calculated by the ∆∆Ct method. […]

[3] = Brain tissue extract binding by rapid equilibrium dialysis; format: in vitro ADME; settings: mouse brain extract, triplicate
Procedure: In order to determine whether senicapoc sufficiently engages its target, additional mice were subjected to 60 min of MCAO, treated with 40 mg/kg senicapoc IP 12 h after reperfusion and then sacrificed 1 h, 4 h, and 12 h later. Mice were deeply anesthetized with isoflurane, and blood was collected from the vena cava into EDTA tubes, and then transcardially perfused with 30 mL of saline. The brain was removed, and the forebrain divided into ipsi- and contralateral side. Brain and plasma samples were stored at − 80 °C pending analysis and then prepared and analyzed as previously described using a Waters Acquity UPLC (Waters, NY) equipped with a Acquity UPLC BEH 1.7 μm C-18 column interfaced to a TSQ Quantum Access Max mass spectrometer (Thermo Fisher Scientific, MA). Senicapoc was analyzed by the selective reaction monitoring transition of its molecular ion peak 324.09 (M + 1) into 228.07, 200.07, 183.11, and 122.18 m/z. An 8-point calibration curve ranging from 50 nM to 10 μM was used for quantification. Senicapoc plasma protein binding was determined with mouse plasma or mouse brain extract in triplicate using rapid equilibrium devices with a molecular weight cutoff of 8 kD (RED, Fisher Scientific).

human tPA = target: T1, human tPA (Homo sapiens, UniProt P00750); experiment: Chromogenic tPA activity assay; format: biochemical; settings: 0.5 μM and 5 μM, 30-min assay, PBS with 10% human serum
T1 construct: purchased Abcam ab108905
Source text: The commercially available tPA Activity Assay Kit (Abcam, ab108905) was used to assess whether senicapoc and TRAM-34 affect the ability of human tPA to cleave its substrate plasminogen similar to protocols published by Lapchak and Boitano [38] and Lapchak et al.. Reactions were run in optically clear flat-bottom 96-well plates (Corning, Catalog #3904). Human plasminogen activator inhibitor-1 (PAI-1; Sigma-Aldrich CC4075) was used as a positive control. Human plasminogen, the chromogenic plasmin substrate, and human tPA were included in the tPA Activity Assay Kit. […] The reactions were pre-incubated at 37 °C for 5 min prior to the addition of the chromogenic plasmin substrate and subsequently placed in a heated SpectraMax M5 spectrophotometer. Absorbances at 405 nm were measured every 30 s for 30 min.

T1 sequence (P00750 36-562): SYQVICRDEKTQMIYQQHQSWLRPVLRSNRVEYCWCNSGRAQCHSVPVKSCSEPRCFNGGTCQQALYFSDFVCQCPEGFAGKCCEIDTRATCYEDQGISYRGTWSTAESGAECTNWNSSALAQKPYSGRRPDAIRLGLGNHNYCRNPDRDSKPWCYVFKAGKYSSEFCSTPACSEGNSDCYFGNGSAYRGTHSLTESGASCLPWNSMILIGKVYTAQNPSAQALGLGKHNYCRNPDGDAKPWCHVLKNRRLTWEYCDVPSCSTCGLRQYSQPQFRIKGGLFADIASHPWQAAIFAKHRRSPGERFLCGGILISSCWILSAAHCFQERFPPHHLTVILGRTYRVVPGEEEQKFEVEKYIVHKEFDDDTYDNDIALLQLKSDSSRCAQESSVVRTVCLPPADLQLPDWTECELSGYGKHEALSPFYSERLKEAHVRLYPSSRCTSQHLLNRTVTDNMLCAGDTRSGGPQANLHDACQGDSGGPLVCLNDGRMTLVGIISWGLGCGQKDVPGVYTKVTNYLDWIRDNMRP

With `NC(=O)C(c1ccccc1)(c1ccc(F)cc1)c1ccc(F)cc1` [senicapoc] the “Ca2+ influx induced by ATP” value [1] was “concentration-dependently reduced”, the “induction of inflammasome component NLRP3” value [2] was “prevented induction” and the “mRNA levels of iNOS and COX-2” value [2] was “significantly reduced”. The “mRNA expression of IL-1β, TNF-α, IL-6 and IL-10” value ([2]; 1 h pre-incubation) was “concentration-dependently reduced”, the “binding to brain tissue extract” value [3] was 98.1 ± 0.5% and the “effect on tPA activity (absorbance at 405 nm)” value (human tPA) was “no effect”.
